Assay results: the supplement of paper PMC5908809

Tests used:
[1] = test system: normal NK cells expanded with K562-aAPC; assay: drug sensitivity score (DSS) (DSS units); higher = more sensitive; extreme values may be limits of the assay; details: 72 h; IL-2 2.5 ng/mL
Description: (§1)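 Drug sensitivity and resistance testing on K562-aAPC-expanded normal NK cells: 5 concentrations (10-fold steps over a 10,000-fold range), 72 h at 37 °C, viability by CellTiter-Glo normalised to DMSO and benzethonium chloride controls; DSS from the fitted curve.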

KAI3 (IL-2 2.5 ng/mL) [2] = assay: percent inhibition of viability; higher = more inhibition; details: 72 h
IMC-1 (IL-2 20 ng/mL) [3] = assay: as above; details: 72 h
KHYG-1 (IL-2 2.5 ng/mL) [4] = assay: as above; details: 72 h
DERL-7 (IL-2 2.5 ng/mL) [5] = assay: as above; details: 72 h
[6] = test system: normal primary NK cells, pool 1 (3 donors) (IL-2 2.5 ng/mL); assay: as above; details: 72 h
NK-92 (IL-2 2.5 ng/mL) [7] = assay: as above; details: 72 h
NKL (IL-2 2.5 ng/mL) [8] = assay: as above; details: 72 h
YT (IL-2 2.5 ng/mL) [9] = assay: as above; details: 72 h
[10] = test system: normal primary NK cells, pool 3 (3 donors) (IL-2 2.5 ng/mL); assay: as above; details: 72 h
SNK-6 (IL-2 2.5 ng/mL) [11] = assay: as above; details: 72 h
[12] = test system: normal primary NK cells, pool 1 (3 donors), resting (IL-2 0 ng/mL); assay: as above; details: 72 h
[13] = test system: normal primary NK cells, pool 2 (3 donors) (IL-2 2.5 ng/mL); assay: as above; details: 72 h
NK-YS (IL-2 2.5 ng/mL) [14] = assay: as above; details: 72 h
KAI3 (IL-2 2.5 ng/mL) [15] = assay: drug sensitivity score (DSS) (DSS units); higher = more sensitive; extreme values may be limits of the assay; details: 72 h
IMC-1 (IL-2 20 ng/mL) [16] = assay: as above; details: 72 h
KHYG-1 (IL-2 2.5 ng/mL) [17] = assay: as above; details: 72 h
DERL-7 (IL-2 2.5 ng/mL) [18] = assay: as above; details: 72 h
[19] = test system: normal primary NK cells, pool 1 (3 donors) (IL-2 2.5 ng/mL); assay: as above; details: 72 h
NK-92 (IL-2 2.5 ng/mL) [20] = assay: as above; details: 72 h
NKL (IL-2 2.5 ng/mL) [21] = assay: as above; details: 72 h
YT (IL-2 2.5 ng/mL) [22] = assay: as above; details: 72 h
[23] = test system: normal primary NK cells, pool 3 (3 donors) (IL-2 2.5 ng/mL); assay: as above; details: 72 h
SNK-6 (IL-2 2.5 ng/mL) [24] = assay: as above; details: 72 h
[25] = test system: normal primary NK cells, pool 1 (3 donors), resting (IL-2 0 ng/mL); assay: as above; details: 72 h
[26] = test system: normal primary NK cells, pool 2 (3 donors) (IL-2 2.5 ng/mL); assay: as above; details: 72 h
NK-YS (IL-2 2.5 ng/mL) [27] = assay: as above; details: 72 h
[28] = test system: normal NK cells expanded with K562-aAPC; assay: percent inhibition of viability; higher = more inhibition; details: 72 h, IL-2 2.5 ng/mL
Description: as §1

CCn1c(C(=O)N(C2CC2)C2CC2)cc2c3c(ncn3C)c(Nc3cc(C)n(C)n3)nc21 (max concentration tested 10000 nM)
Details	drug sensitivity score
DERL-7 (IL-2 2.5 ng/mL) [18]	4.87
IMC-1 (IL-2 20 ng/mL) [16]	0
KAI3 (IL-2 2.5 ng/mL) [15]	14.5
KHYG-1 (IL-2 2.5 ng/mL) [17]	5.93
NK-92 (IL-2 2.5 ng/mL) [20]	4.85
NK-YS (IL-2 2.5 ng/mL) [27]	3.29
NKL (IL-2 2.5 ng/mL) [21]	8.84
SNK-6 (IL-2 2.5 ng/mL) [24]	0
YT (IL-2 2.5 ng/mL) [22]	4.02
[1]	5.99
[19]	3.85
[23]	2.38
[25]	0
[26]	3.12

percent inhibition of viability [%]
Details	1 nM	10 nM	100 nM	1000 nM	10000 nM
DERL-7 (IL-2 2.5 ng/mL) [5]	0.43	0.75	1.97	12.3	54.1
IMC-1 (IL-2 20 ng/mL) [3]	-1.17	2.69	0.12	-11.6	-7.89
KAI3 (IL-2 2.5 ng/mL) [2]	14.1	21.2	27.8	44.8	76.3
KHYG-1 (IL-2 2.5 ng/mL) [4]	4.48	5.02	4.17	12.6	69.7
NK-92 (IL-2 2.5 ng/mL) [7]	4.07	7.86	-2	9.2	60.7
NK-YS (IL-2 2.5 ng/mL) [14]	4.8	6.33	4.46	16.1	36.6
NKL (IL-2 2.5 ng/mL) [8]	0.96	-1.04	3.26	41.2	70.4
SNK-6 (IL-2 2.5 ng/mL) [11]	-4.81	22.8	-3.45	-16.6	7.74
YT (IL-2 2.5 ng/mL) [9]	9.25	9.54	7.25	14.5	46.5
[6]	-3.85	-1.69	-6.9	11.7	41.6
[10]	5.51	-1.86	3.33	6.54	30.7
[12]	-6.63	-4.84	-10.8	4.13	5.86
[13]	-2.38	-1.43	0.57	3.6	49
[28]	5.29	4.9	4.54	16	63.8

O=C(O)c1ccc(-c2c[nH]c3ncc(-c4ccccc4)cc23)cc1C1CCCC1 (max concentration tested 10000 nM)
Details	drug sensitivity score
DERL-7 (IL-2 2.5 ng/mL) [18]	4.22
IMC-1 (IL-2 20 ng/mL) [16]	4.18
KAI3 (IL-2 2.5 ng/mL) [15]	8.09
KHYG-1 (IL-2 2.5 ng/mL) [17]	8.41
NK-92 (IL-2 2.5 ng/mL) [20]	4.5
NK-YS (IL-2 2.5 ng/mL) [27]	4.89
NKL (IL-2 2.5 ng/mL) [21]	7.3
SNK-6 (IL-2 2.5 ng/mL) [24]	0
YT (IL-2 2.5 ng/mL) [22]	3.73
[1]	6.12
[19]	3.22
[23]	1.43
[25]	3.47
[26]	3.48

percent inhibition of viability [%]
Details	1 nM	10 nM	100 nM	1000 nM	10000 nM
DERL-7 (IL-2 2.5 ng/mL) [5]	-9.96	-1.92	-0.6	3.14	69
IMC-1 (IL-2 20 ng/mL) [3]	-3.86	-6.5	-2.05	1.32	72.7
KAI3 (IL-2 2.5 ng/mL) [2]	14.8	11.5	12.9	31	53.1
KHYG-1 (IL-2 2.5 ng/mL) [4]	1.54	-1.17	6.23	24.4	87.8
NK-92 (IL-2 2.5 ng/mL) [7]	-7.79	-6.02	-14.8	6.45	63.1
NK-YS (IL-2 2.5 ng/mL) [14]	3.9	-4.11	6.44	17.4	53.2
NKL (IL-2 2.5 ng/mL) [8]	-3	3.11	11.4	27.3	76.9
SNK-6 (IL-2 2.5 ng/mL) [11]	2.78	-21.4	-20.9	-24.3	-8.86
YT (IL-2 2.5 ng/mL) [9]	3.57	-0.35	6.38	10.9	43.5
[6]	-4.88	9.93	9.09	13.8	33.7
[10]	2.83	5.65	10	2.66	25.9
[12]	-0.46	4.28	6.33	11.9	41.2
[13]	-5.78	-5.79	-4.92	6.53	46
[28]	0.69	-1.15	0.93	14.6	68.6

C[C@@H]1CN(CC(=O)Nc2ccc3c(c2)Cc2cccc(-c4cc(=O)cc(N5CCOCC5)o4)c2S3)C[C@H](C)O1 (max concentration tested 25000 nM)
Details	drug sensitivity score
DERL-7 (IL-2 2.5 ng/mL) [18]	6.89
IMC-1 (IL-2 20 ng/mL) [16]	5.86
KAI3 (IL-2 2.5 ng/mL) [15]	7.81
KHYG-1 (IL-2 2.5 ng/mL) [17]	8.65
NK-92 (IL-2 2.5 ng/mL) [20]	8.57
NK-YS (IL-2 2.5 ng/mL) [27]	6.02
NKL (IL-2 2.5 ng/mL) [21]	7.43
SNK-6 (IL-2 2.5 ng/mL) [24]	6.99
YT (IL-2 2.5 ng/mL) [22]	6.69
[1]	2.76
[19]	6.71
[23]	3.14
[25]	8.7
[26]	5.1

percent inhibition of viability [%]
Details	2.5 nM	25 nM	250 nM	2500 nM	25000 nM
DERL-7 (IL-2 2.5 ng/mL) [5]	-2	-3.36	-4.44	13	85.2
IMC-1 (IL-2 20 ng/mL) [3]	-9.5	-5.69	-6.07	2.99	98.3
KAI3 (IL-2 2.5 ng/mL) [2]	5.88	0.49	-7.91	18.6	87.2
KHYG-1 (IL-2 2.5 ng/mL) [4]	-6.23	-8.72	-3.2	18.6	107
NK-92 (IL-2 2.5 ng/mL) [7]	-7.1	-15.1	-2.57	18.6	101
NK-YS (IL-2 2.5 ng/mL) [14]	-6.64	-9	-7.16	8.32	84.3
NKL (IL-2 2.5 ng/mL) [8]	-13.9	-22.8	-12.4	24.9	71
SNK-6 (IL-2 2.5 ng/mL) [11]	-10.7	-10.4	-8.37	9	100
YT (IL-2 2.5 ng/mL) [9]	-6.13	-5.84	-0.59	8.43	96.4
[6]	-8.95	-10.4	-7.4	10	91.3
[10]	-1.38	0.2	6.37	-0.76	59.3
[12]	10.2	6.26	7.45	30.7	89
[13]	-2.96	-5.92	1.66	7.62	69.8
[28]	-9.26	-9.66	-11.6	-3.45	56.6

Cn1cc(C[C@@H](N)C(=O)O)c2ccccc21 [1-methyl-D-tryptophan] (max concentration tested 5000 nM)
Details	drug sensitivity score
IMC-1 (IL-2 20 ng/mL) [16]	0
[1]	0
[23]	0
[26]	0

percent inhibition of viability [%]
Details	0.5 nM	5 nM	50 nM	500 nM	5000 nM
IMC-1 (IL-2 20 ng/mL) [3]	-6.61	-9.96	-5.67	-2.82	0.08
[10]	-7.11	-12.2	0.9	5.49	5.66
[13]	-6.45	-5.59	-1.81	4.04	6.29
[28]	-12.1	-7.01	-8.73	0.95	6.01

CC/C(=C(\c1ccc(O)cc1)c1ccc(OCCN(C)C)cc1)c1ccccc1 [4-hydroxytamoxifen] (max concentration tested 10000 nM)
Details	drug sensitivity score
DERL-7 (IL-2 2.5 ng/mL) [18]	7.09
IMC-1 (IL-2 20 ng/mL) [16]	5.5
KAI3 (IL-2 2.5 ng/mL) [15]	6.52
KHYG-1 (IL-2 2.5 ng/mL) [17]	5.42
NK-92 (IL-2 2.5 ng/mL) [20]	6.14
NK-YS (IL-2 2.5 ng/mL) [27]	4.91
NKL (IL-2 2.5 ng/mL) [21]	4.98
SNK-6 (IL-2 2.5 ng/mL) [24]	4.28
YT (IL-2 2.5 ng/mL) [22]	6.69
[1]	4.78
[19]	3.97
[23]	3.03
[25]	4.19
[26]	5.13

percent inhibition of viability [%]
Details	1 nM	10 nM	100 nM	1000 nM	10000 nM
DERL-7 (IL-2 2.5 ng/mL) [5]	7.02	-0.93	4.62	16.8	79.2
IMC-1 (IL-2 20 ng/mL) [3]	-4.59	-0.5	3.38	9.15	71.8
KAI3 (IL-2 2.5 ng/mL) [2]	7.22	10.1	14.3	5.63	102
KHYG-1 (IL-2 2.5 ng/mL) [4]	-2.07	1.6	5.77	21.8	55.9
NK-92 (IL-2 2.5 ng/mL) [7]	3.77	-3.77	6.43	2.65	103
NK-YS (IL-2 2.5 ng/mL) [14]	-2.09	3.5	7.72	7.44	66.8
NKL (IL-2 2.5 ng/mL) [8]	8.86	-6.55	2.97	4.58	77.8
SNK-6 (IL-2 2.5 ng/mL) [11]	-1.81	-16.4	0.89	-17.1	93.9
YT (IL-2 2.5 ng/mL) [9]	3.34	-0.32	-0.38	9.38	93.1
[6]	-13	0.38	-1.85	-2.34	75.4
[10]	-0.81	-2.52	-1.24	3.05	49.3
[12]	-6.81	0.21	-12.3	-11.9	88.8
[13]	-4	-6.91	4.61	4.67	80.2
[28]	-7.32	-3.75	-0.57	7.65	64
